The text below walks through data of US10479814B2, “Adenosine receptor activation reagent and the uses of thereof” (Zhejiang Subtropical Crops Research Institute, priority 2014, dated 2019).

“Also recorded” adds a separate entry of the source.

Holding throughout (format): in vivo
In assay [1] the test system is rat middle cerebral artery distal obstruction cerebral ischemia model. Description: dMCAO cerebral ischemia: neurologic function score. As for the experimental part:
Using rat middle cerebral artery distal obstruction cerebral ischemia model. (1) according to rat weight, 10% chloral hydrate (3 ml/kg) was peritoneally injected to anaesthetize. […]
3.3.1 the neurologic function score of the animal in conscious were scored for the rat behaviour according to the Neurological Defects 4 Score in 5 Grade Method by Longa E Z et al ^[4] : 0 point: no significant neurologic function impairment; 1 point: unable to stretch forelimbs on opposite sides; 2 point: rolling to the opposite side when walking; 3 point: duping to the opposite side when walking; 4 point: unable to spontaneously walk, and loss of consciousness.

Assay [2] relates to mouse sleep induced by pentobarbital sodium. The assay is described as follows: sleep induced by threshold dose of pentobarbital sodium. How it is done: Male ICR mice were randomly divided into four groups, respectively control group, positivediazepam (1 mg/kg) group, HEA (25 mg/kg) group and DPCPX+HEA (2 mg/kg+25 mg/kg) group. […]
Regarding the mouse righting reflex disappear for 1 min within 15 min as the hypnagogic criterion, sleep latency and sleep duration were recorded for the mice in each group.

In assay [3] the test system is mouse kidney ischemia reperfusion. Description: kidney ischemia reperfusion: electron microscope observation of renal tubular epithelial cells. How it is done:
Male C57BL/6 mice 20-25 g, after one week of adaptive feeding to the animals, were randomly divided into eight groups: sham-operation group, IR group, HEA 5 mg/kg group, HEA 7 mg/kg group, HEA 10 mg/kg group, DPCPX (1 mg/kg) group, DPCPX (1 mg/kg)+HEA (5 mg/kg) group and DPCPX (1 mg/kg)+HEA (7.5 mg/kg) group. The mouse was weighed before operation, then peritoneally injected with pentobarbital sodium 50 mg/kg to anaesthetize the mouse, abdomen was opened by ventromedial incision, blunt dissection and the kidney pedicle was sufficiently exposed, renal ischemia was induced by clapping two side kidney pedicle with non-invasive bulldog clamp, the color of kidney change from bright red to purple black immediately, determination method of success of the experiment model can refer to the methods in literature 7 and 8. At time of 30 min of ischemia the bulldog clamp was loosened, the perfuse was restored, the color of kidney changed gradually from dark red to bright red, showing re perfusion was successful. The wound was stitched. The animals were freely fed water and food. In the sham-operation group, the mice only received operation of abdomen open, kidney pedicle and abdomen suture. The kidney IR mode were made for the mice in the remaining groups. In each drug group, before 15 minute of ischemia, the drug with corresponding concentration was speritoneally injected, in drug combination group, 15 minutes before ischemia, the drugs were given simultaneously. The section was observed using Transmission Electron Microscope ([…], from Hitachi Co. limited). The observation was conducted in Electron Microscoper Room of Wenzhou Medical University.

In assay [4] the test system is TNF-α mRNA in mouse renal cortex. The assay is described as follows: kidney ischemia reperfusion: real time quantitative PCR of TNF-α. The following applies: vs IR group; HEA 5, 7.5, 10 mg/kg; DPCPX 1 mg/kg; DPCPX 1 mg/kg+HEA. As for the experimental part:
Male C57BL/6 mice 20-25 g, after one week of adaptive feeding to the animals, were randomly divided into eight groups: sham-operation group, IR group, HEA 5 mg/kg group, HEA 7 mg/kg group, HEA 10 mg/kg group, DPCPX (1 mg/kg) group, DPCPX (1 mg/kg)+HEA (5 mg/kg) group and DPCPX (1 mg/kg)+HEA (7.5 mg/kg) group. […]
The MPO analysis was conducted according to the specification in the kit. 9.2.6 Real time quantitative PCR analysis of gene expression of ICAM-1, TNF-α and IL-1β; the sequence of primer used in RT-PCR reaction system is as follow:
PCR amplification reaction system: IQ SYBR Green Super mix 12.5 μL, Forward primer (10 μmo/L) 1 μL, Reverse primer (10 μmol/L) 1 μL, cDNA (water was added to dilute to same level) 10.5 μL. […] The statistics and calculation of experiment results was automatically conducted fluorescence quantitative PCR analyzing software BIO-RAD CFX Manager. Target gene mRNA expression level was calculated by 2-ΔΔCt method, and standardized using the GAPDH mRNA in corresponding specimen a standard.

As for `CCCn1c(=O)c2[nH]c(C3CCCC3)nc2n(CCC)c1=O` [DPCPX, reference compound], in assay [1] (HEA 7.5 mg/kg + DPCPX 1 mg/kg ip, all dMCAO readouts), the “antagonism of the protective effects of HEA in dMCAO” value was “may be antagonized”. Besides, the “effect of adenosine receptor antagonist on hypnosis effect of the HEA” value in assay [2] (DPCPX+HEA 2 mg/kg+25 mg/kg) is listed as “hypnosis effect of the HEA is significantly inhibited”. Moreover, the “renal tubular epithelial cell ultrastructure (electron microscope)” value in assay [3] (DPCPX 1 mg/kg alone or DPCPX 1 mg/kg+HEA 5 or 7.5 mg/kg before ischemia) is “essentially no mitochondria with complete structure”. Further, in assay [4], the “TNF-α mRNA expression in renal cortex” value is listed as “significantly increase”.
For `OCCNc1ncnc2c1ncn2[C@@H]1O[C@H](CO)[C@@H](O)[C@H]1O` [HEA, N(6)-(2-hydroxyethyl)-adenosine], the neurologic function score entry in assay [1] (dMCAO rat, HEA 5, 7.5, 12 mg/kg ip (7.5 mg/kg) 30 min before operation, vs model group) is recorded as “significantly improve neurological symptom of dMCAO rat; also recorded: significantly improve neurological function of the injured brain”. Besides, the “sleep time induced by threshold dose of pentobarbital sodium” value in assay [2] (HEA 25 mg/kg, sc, pentobarbital sodium 50 mg/kg) is reported as “extended sleep time of the mice induced by threshold dose of pentobarbital sodium to a certain degree; also recorded: extends mouse sleep time induced by threshold dose of pentobarbital sodium to a certain degree”. Further, in assay [2] (HEA 25 mg/kg, sc, pentobarbital sodium 50 mg/kg, vs control group), the sleep latency result is on record as “no statistical difference in sleep latency; also recorded: no significant effect on sleep latency”. Besides, the “renal tubular epithelial cell ultrastructure (electron microscope)” value was “the entirety is improved compared with ischemia reperfusion group” in assay [3] (HEA 5 mg/kg group), “most of the mitochondria are normal” in assay [3] (HEA 7.5 mg/kg group) and “mitochondria protection is more clear than the IR group” in assay [3] (HEA 10 mg/kg group). Besides, the “TNF-α mRNA expression in renal cortex” value in assay [4] is recorded as “significantly reduce the high expression”.
